Where two headings read alike, the source gives them in different places.
Experiments:
[1] = biological target: Human recombinant DHX9 protein (Homo sapiens (Human), UniProt Q08211); assay: DHX9 ATPase assay (ADP-Glo); type: biochemical; settings: for IC50: read-out: DHX9 Biochemical Inflection Point
[2] = tested on: circBRIP1 in HCT116 cells; assay: DHX9 circBRIP1 cellular target engagement SYBR Green assay; type: cell-based
LS411N cells = assay: DHX9 cellular proliferation assay (CellTiter-Glo), LS411N (CRC-MSI); type: cell-based; settings: performed at Pharmaron, read-out: LS411N (CRC-MSI-H) Antiproliferative
NCI-H747 cells = assay: DHX9 cellular proliferation assay (CellTiter-Glo), NCI-H747 (CRC-MSS); type: cell-based; settings: Homo sapiens, NCI-H747, performed at Pharmaron; read-out: H747 (CRC-MSS) Antiproliferative
[3] = tested on: circBRIP1 in HCT116 cells; assay: DHX9 circBRIP1 cellular target engagement TaqMan multiplex assay; type: cell-based; settings: read-out: DHX9 Cellular Target Engagement
[4] = Homo sapiens, HCT-116, values marked +, read-out: DHX9 Cellular Target Engagement EC50
[5] = Homo sapiens, HCT-116, Taqman assay (*)
[6] = values marked +, read-out: DHX9 Cellular Target Engagement EC50
[7] = Homo sapiens, HCT-116, SyBr assay (^+), read-out: DHX9 Cellular Target Engagement

Human recombinant DHX9 protein, sequence (Q08211 whole entry): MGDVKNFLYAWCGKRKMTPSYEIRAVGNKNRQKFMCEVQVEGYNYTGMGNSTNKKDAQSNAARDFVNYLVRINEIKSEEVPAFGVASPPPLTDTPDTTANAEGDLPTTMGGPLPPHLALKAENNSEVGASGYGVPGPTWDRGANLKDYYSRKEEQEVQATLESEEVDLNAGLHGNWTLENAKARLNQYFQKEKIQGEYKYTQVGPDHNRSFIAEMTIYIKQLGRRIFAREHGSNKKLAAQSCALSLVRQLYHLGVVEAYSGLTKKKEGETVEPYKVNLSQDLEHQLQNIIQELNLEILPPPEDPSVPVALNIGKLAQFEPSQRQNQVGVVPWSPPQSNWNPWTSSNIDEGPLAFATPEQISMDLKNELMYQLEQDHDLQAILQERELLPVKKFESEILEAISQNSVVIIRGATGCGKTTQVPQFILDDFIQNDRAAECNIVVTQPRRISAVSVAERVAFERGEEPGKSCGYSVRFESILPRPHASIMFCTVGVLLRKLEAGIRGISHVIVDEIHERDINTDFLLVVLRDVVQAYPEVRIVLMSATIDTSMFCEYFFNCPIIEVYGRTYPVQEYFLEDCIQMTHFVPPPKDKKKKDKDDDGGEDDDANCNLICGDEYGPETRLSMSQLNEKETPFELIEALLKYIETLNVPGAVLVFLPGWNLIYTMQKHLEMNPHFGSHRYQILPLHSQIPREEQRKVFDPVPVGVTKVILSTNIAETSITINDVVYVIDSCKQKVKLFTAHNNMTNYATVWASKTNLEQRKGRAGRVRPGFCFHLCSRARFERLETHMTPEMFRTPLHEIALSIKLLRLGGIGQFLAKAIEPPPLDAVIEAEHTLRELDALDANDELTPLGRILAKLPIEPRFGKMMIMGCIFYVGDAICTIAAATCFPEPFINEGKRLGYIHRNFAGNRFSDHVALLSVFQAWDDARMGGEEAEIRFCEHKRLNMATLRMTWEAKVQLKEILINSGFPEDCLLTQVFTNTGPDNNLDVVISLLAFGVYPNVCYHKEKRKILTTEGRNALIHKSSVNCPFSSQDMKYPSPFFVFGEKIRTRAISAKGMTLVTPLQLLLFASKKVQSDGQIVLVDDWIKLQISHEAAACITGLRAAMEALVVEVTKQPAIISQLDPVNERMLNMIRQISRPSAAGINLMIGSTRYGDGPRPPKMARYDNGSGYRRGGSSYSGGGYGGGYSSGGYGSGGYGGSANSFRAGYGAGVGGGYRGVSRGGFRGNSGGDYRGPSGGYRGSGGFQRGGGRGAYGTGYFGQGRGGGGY

Row | SMILES | DHX9 Biochemical Max Inhibition [1] | IC50 [1] [nM] | further results
1 | CCc1sc(C(=O)Nc2cc(Cl)cc(NS(C)(=O)=O)c2)cc1-c1ccccn1 [Example 232] | 77.5% | 20.2 | EC50 [2, 4]: 61 nM
2 | CCS(=O)(=O)Nc1cc(Cl)cc(NC(=O)c2cc(-c3ncc(N4CC(F)(F)C4)cc3F)n(C)c2)c1 [Example 517] | 54.1 | 23.7 | IC50 (LS411N cells; Homo sapiens, LS-411N): 135 nM; IC50 (NCI-H747 cells): 2220 nM; EC50 [3, 5]: 16.8 nM
3 | Cc1cc(C(=O)Nc2cc(Cl)cc(NS(C)(=O)=O)c2)cn1-c1ncc(N2CCC(F)(F)C2)cc1F [Example 408] | 63 | 41.6 | IC50 (LS411N cells; Homo sapiens, LS-411N): 215 nM; IC50 (NCI-H747 cells): 8160 nM; EC50 [3, 5]: 67.1 nM
4 | Cc1sc(C(=O)Nc2cc(Cl)cc(NS(C)(=O)=O)c2)cc1-c1ncccc1OC(C)c1cncc(F)c1 (stereo not drawn) [Example 630] | 67 | 22.9 | IC50 (NCI-H747 cells): > 10000 nM
5 | Cn1cc(C(=O)Nc2cc(Cl)cc(NS(C)(=O)=O)c2)cc1-c1ncc(F)cc1CCc1cncc(F)c1 [Example 728] | 62.5 | 158 | EC50 [3, 5]: 1350 nM
6 | Cc1cc(C(=O)Nc2cc(Cl)cc(NS(C)(=O)=O)c2)cn1-c1ccc(N(C)C2CCOC2)cn1 (stereo not drawn) [Example 674] | 66.5 | 3.9 | IC50 (NCI-H747 cells): > 10000 nM
7 | CS(=O)(=O)Nc1cc(Cl)cc(NC(=O)c2cnn(-c3ncccc3OCc3cc(F)cc(F)c3)c2)c1 [Example 187] | 82.4% | 3.2 | EC50 [2, 6]: 50.4 nM
8 | CS(=O)(=O)Nc1cc(F)cc(NC(=O)c2cnn(-c3ccccc3OCc3ccccc3)c2)c1 [Example 430] | 74.9 | 142 | EC50 [2, 7]: 1170 nM
9 | CC(Oc1cccnc1-c1cc(C(=O)Nc2cc(Cl)cc(NS(C)(=O)=O)c2)cn1C)c1cc(F)cc(C(F)(F)F)c1 (single isomer, unassigned) [Example 629, N-(3-chloro-5-methanesulfonamidophenyl)-5-{3-[1-[3-fluoro-5-(trifluoromethyl)phenyl]ethoxy]pyridin-2-yl}-1-methyl-1H-pyrrole-3-carboxamide] | 74.8 | 28.9 | EC50 ([3]; Taqman assay (*)): 112 nM
10 | Cc1sc(C(=O)Nc2cc(Cl)cc(NS(C)(=O)=O)c2)cc1-c1ncccc1OC(C)c1cncc(F)c1 (single isomer, unassigned) [Example 631] | 64.4 | 31.2 | IC50 (LS411N cells; Homo sapiens, LS-411N): 156 nM; IC50 (NCI-H747 cells): 4880 nM; EC50 [3, 5]: 59.3 nM
11 | CS(=O)(=O)Nc1cc(Cl)cc(NC(=O)c2cnn(-c3c(F)cc(F)cc3OCc3cnco3)c2)c1 [Example 429] | 59.6 | 255 | EC50 [2, 7]: 1180 nM
12 | CS(=O)(=O)Nc1cc(Cl)cc(NC(=O)c2cnn(-c3ncccc3OCc3cccc(Br)c3)c2)c1 [Example 231] | 66.3% | 49.1 | EC50 [2, 4]: 203 nM
13 | CS(=O)(=O)Nc1cc(Cl)cc(NC(=O)c2cnn([C@@H]3CCCC[C@@H]3O)c2)c1 (relative stereo) [Example 153, N-(3-chloro-5-(methylsulfonamido)phenyl)-1-(2-cis-hydroxycyclohexyl)-1H-pyrazole-4-carboxamide] | 59.7% | 256 | EC50 [2, 6]: 6110 nM
14 | CC(Oc1cccnc1-c1cc(C(=O)Nc2cc(Cl)cc(NS(C)(=O)=O)c2)cn1C)c1cc(F)cc(C(F)(F)F)c1 (single isomer, unassigned) [Example 628, N-(3-chloro-5-methanesulfonamidophenyl)-5-{3-[1-[3-fluoro-5-(trifluoromethyl)phenyl]ethoxy]pyridin-2-yl}-1-methyl-1H-pyrrole-3-carboxamide] | 58.1 | 537 | EC50 ([3]; Taqman assay (*)): 1080 nM
15 | Cc1sc(C(=O)Nc2cc(Cl)cc(NS(C)(=O)=O)c2)cc1-c1ncc(OC(C)C)cc1F [Example 455] | 67.3 | 34.2 | IC50 (LS411N cells; Homo sapiens, LS-411N): 88.6 nM; IC50 (NCI-H747 cells): 6780 nM; EC50 [3, 5]: 57.6 nM
16 | Cn1cc(C(=O)Nc2cc(Cl)cc(NS(C)(=O)=O)c2)cc1-c1ncc(N2CC3C(C2)C3(C)C)cc1F (stereo not drawn) [Example 516] | 57.7 | 204 | EC50 [3, 5]: 220 nM
17 | Cc1sc(C(=O)Nc2cc(Cl)cc(NS(C)(=O)=O)c2)cc1-c1ncc(N2CC(C(F)(F)F)C2)cc1F [Example 460, N-(3-chloro-5-(methylsulfonamido)phenyl)-4-(3-fluoro-5-(3-(trifluoromethyl)azetidin-1-yl)pyridin-2-yl)-5-methylthiophene-2-carboxamide] | 60.9 | 131 | IC50 (LS411N cells): 221 nM; EC50 ([3]; Taqman assay (*)): 58.6 nM
18 | CS(=O)(=O)Nc1cc(Cl)cc(NC(=O)c2cnn(-c3ncccc3OCc3cc(F)cc(F)c3)c2)c1 [Example 256] | 70.1% | 403 | EC50 [2, 6]: 2030 nM
19 | CS(=O)(=O)Nc1cc(Cl)cc(NC(=O)c2cc(-c3ncccc3OCc3cccnc3)cs2)c1 [Example 217] | 69.6% | 2.1 | 
20 | Cc1sc(C(=O)Nc2cc(Cl)cc(NS(C)(=O)=O)c2)cc1-c1ncc(N2CCC3(C2)CC3(F)F)cc1F (stereo not drawn) [Example 480] | 67.4 | 146 | 
21 | CCS(=O)(=O)Nc1cc(Cl)cc(NC(=O)c2cc(C)n(-c3ncc(F)cc3Cl)c2)c1 [Example 446] | 64.1 | 115 | 

Row | SMILES | DHX9 Biochemical Max Inhibition [1] | IC50 [1] [nM] | further results
22 | Cn1cc(C(=O)Nc2cc(Cl)cc(NS(C)(=O)=O)c2)cc1-c1ncc(F)cc1/C=C/c1cncc(F)c1 [Example 729] | 45.5 | 114 | 
23 | CS(=O)(=O)Nc1cc(Cl)cc(NC(=O)c2cnn(C3CC4(CNC4)C3)c2)c1 [Example 146] | 71.9% | 30.4 | 
24 | Cc1cc(C(=O)Nc2cc(Cl)cc(NS(C)(=O)=O)c2)cn1-c1ccc(OC2COC2)cn1 [Example 668] | 82.3 | 7.3 | 
25 | CCS(=O)(=O)Nc1cc(Cl)cc(NC(=O)c2cc(-c3ncc(F)cc3F)c(C)s2)c1 [Example 347] | 72.1% | 34 | 
26 | CCOc1cc(F)cnc1-c1cc(C(=O)Nc2cc(Cl)cc(NS(C)(=O)=O)c2)cn1C [Example 561] | 69.7 | 15.9 | 
27 | CS(=O)(=O)Nc1cc(Cl)cc(NC(=O)c2cc(C(=O)N3CCCCC3)n(-c3ccccn3)c2)c1 [Example 644] | 71.2 | 95 | 
28 | CS(=O)(=O)Nc1cc(Cl)cc(NC(=O)c2cnn(-c3ncc(F)cc3CCc3cccc(F)c3)c2)c1 [Example 251] | 64.7% | 5200 | 
29 | CC(C)(C)OC(=O)N1CC2(CC(n3cc(C(=O)Nc4cc(Cl)cc(NS(C)(=O)=O)c4)cn3)C2)C1 [Example 144, tert-butyl 6-(4-((3-chloro-5-(methylsulfonamido)phenyl)carbamoyl)-1H-pyrazol-1-yl)-2-azaspiro[3.3]heptane-2-carboxylate] | 65.1% | 224 | 
30 | CCc1nc2ccc(C(=O)Nc3cc(Cl)cc(NS(C)(=O)=O)c3)cn2c1N(C)C [Example 133] | 41.8% | 13600 | 
31 | CS(=O)(=O)Nc1cc(Cl)cc(NC(=O)c2cnn(-c3ccc(N4CCCC4=O)cn3)c2)c1 [Example 90] | 61.5% | 24 | 
32 | CS(=O)(=O)Nc1cc(Cl)cc(NC(=O)c2cc3c(F)ccc(F)c3s2)c1 [Example 325] | 63.9% | 591 | 
33 | CS(=O)(=O)Nc1cc(Cl)cc(NC(=O)c2cc(-c3ncc(F)cn3)c(Cl)s2)c1 [Example 450] | 62.8 | 79.1 | 
34 | Cc1cnc(-c2cc(C(=O)Nc3cc(Cl)cc(NS(C)(=O)=O)c3)cn2C)c(F)c1 [Example 580] | 70.5 | 23.9 | 
35 | CS(=O)(=O)Nc1cc(Cl)cc(NC(=O)c2cc3ccccn3c2)c1 [Example 209] | 64% | 89.4 | 
36 | Cc1sc(C(=O)Nc2cc(Cl)cc(NS(C)(=O)=O)c2)cc1-c1ncccc1OC(C)c1cc(F)cc(F)c1 (single isomer, unassigned) [Example 633] | 71.2 | 52.6 | 
37 | Cc1sc(C(=O)Nc2cc(Cl)cc(NS(=O)(=O)CCO)c2)cc1-c1ncc(N2CC(C(F)(F)F)C2)cc1F [Example 529] | 57.3 | 163 | 
38 | CCS(=O)(=O)Nc1cc(Cl)cc(NC(=O)c2cc(-c3ncc(C(F)(F)F)cc3C)c(C)s2)c1 [Example 700] | 85.6 | 153 | 
39 | CS(=O)(=O)Nc1cc(Cl)cc(NC(=O)c2cc(-c3ncc(F)cc3OCc3cncnc3)n(CC(F)(F)F)c2)c1 [Example 735] | 80.1 | 7 | 
40 | CN(C)C(=O)c1cccnc1-c1csc(C(=O)Nc2cc(Cl)cc(NS(C)(=O)=O)c2)c1 [Example 222] | 78.7% | 17.7 | 
41 | Cc1cc(C(=O)Nc2cc(Cl)cc(NS(C)(=O)=O)c2)cn1-c1ncc(N2CCC3(C2)CC3(F)F)cc1F (stereo not drawn) [Example 414] | 58.3 | 50.6 | 
42 | CCS(=O)(=O)Nc1cc(Cl)cc(NC(=O)c2cc(-c3ccc(F)cn3)n(C)c2)c1 [Example 579] | 65.2 | 31.1 | 

From patent US20240316047A1, “INHIBITORS OF RNA HELICASE DHX9 AND USES THEREOF” (ACCENT THERAPEUTICS, INC., priority 2022, published 2024)
